Measured values published in US11530196B2, “Pyrimidine compound acting on EGFR and ERBB2” (CHINA RESOURCES PHARMACEUTICAL HOLDINGS COMPANY LIMITED, priority 2019, dated 2022).

Experiments:
[1] = tested on: Ba/F3 (EGFR-D770_N771insSVD) subcutaneous allograft tumor; assay: Ba/F3 EGFR D770_N771 ins SVD subcutaneous allograft tumor model; type: in vivo, Nude mouse (BALB/c Nude)
Protocol: Ba/F3 (EGFR-D770_N771insSVD) cells were artificially constructed cell lines with EGFR-D770_N771insSVD insertion mutation using mouse B cells. The CDX model established by this cell line was used to evaluate the inhibitory effect of preferred compounds on Exon 20 EGFR-D770_N771insSVD insertion mutation in animals.
Nude mouse (BALB/c Nude), Ba/F3 (EGFR-D770_N771insSVD) cell line
1. Cell culture: cells were cultured in vitro in monolayer, culture conditions were RPMI-1640 (cell culture medium) with 10% fetal bovine serum, 100 U/mL penicillin and 100 µg/mL streptomycin, the cells were cultured at a 37° C., 5% CO2 incubator. Conventional digestion with trypsin-EDTA was performed twice a week for passage. When the saturation of Ba/F3 (EGFR-D770_N771insSVD) cell was 80%-90%, and the number reached the requirement, the cells were harvested and counted. The density was 5×10^6 cells.
2. Cell inoculation: 0.2 mL (containing 5×10^6 cells) of Ba/F3 (EGFR-D770_N771insSVD) cell suspension (PBS:Matrigel=1:1) was inoculated subcutaneously on the right back of each mouse, for a total of 64 mice. On the 7th day after inoculation, when the average tumor volume reached 133 mm^3, the randomized stratified grouping method was used to start the grouping administration according to the tumor volume and animal weight. PBS was phosphate buffer and Matrigel was matrix.
3. Administration: The dose was 0-7 days: 10 mg/kg, 8-21 days: 40 mg/kg; oral administration; administration frequency: once a day×3 weeks.
Tumor diameters were measured with vernier calipers twice a week. The calculation formula of tumor volume was: V=0.5a×b^2, wherein a and b represented the long and short diameters of the tumor, respectively.
The antitumor efficacy of the compounds was evaluated by TGI (%) or relative tumor proliferation rate T/C (%).
Relative tumor proliferation rate T/C (%)=TRTV/CRTV×100% (TRTV: mean RTV in the treatment group; CRTV: mean RTV in the solvent control group).
The relative tumor volume (RTV) was calculated according to the results of tumor measurement. The calculation formula was RTV=Vt/V0, wherein V0 was the tumor volume measured at the time of group administration (i.e., D0), and Vt was the tumor volume corresponding to a certain measurement. TRTV and CRTV were taken on the same day.
TGI (%), reflecting the tumor growth inhibition rate. TGI (%)=[(1−(average tumor volume at the end of administration of a treatment group−average tumor volume at the beginning of administration of this treatment group))/(average tumor volume at the end of treatment in the solvent control group−average tumor volume at the beginning of treatment of the solvent control group)]×100%.

[2] = tested on: LU0387 EGFR-H773_V774insNPH cells; assay: Anti-proliferation activity test of LU-0387 cells; type: cell-based; conditions: Homo sapiens, 96 h, CTG, 4 days, read-out: Cell IC50 (anti-proliferation)
Protocol: (1) Anti-Proliferation Activity Test of LU-0387 (EGFR Exon 20 NPH Insertion Mutation) Cells
Fetal bovine serum FBS, CellTiter Glo® luminescent cell activity assay, 96-well clear flat-bottomed black-walled plate
A cell counter was used for cell counting, and cell viability was detected to ensure that the viability of each cell line was above 90%. Cell suspension was added to a 96-well plate to bring the cell density to the specified concentration and incubated overnight at 37° C., 5% CO2 and 95% humidity. The culture medium was added to the T0 plate, the CTG reagent was melted and the cell plate was equilibrated at room temperature. CTG solution was added to each well. The cell plate was vibrated to lyse the cells and the cold light values were read. The compound to be test and the control drug were diluted in a gradient to obtain a 10-fold solution. 10 μL of drug solution was added to each well of a 96-well plate that had been inoculated with cells. The incubation was continued at 37° C., 5% CO2, 95% humidity for 4 days, and CTG analysis was performed and cold light values were read separately. The data were analyzed using GraphPad Prism 5.0 software and IC50 values were calculated.
The IC50 data of the compounds of the present disclosure against EGFR exon 20 insertion mutation NPH in LU-0387 cells are shown in Table 4.

[3] = Pharmacokinetic study, single intravenous and oral administration in rats; type: in vivo; conditions: rat, plasma; for AUC(0-t): read-out: Exposure of AUC0-last
Protocol: (§1) The purpose of this experiment was to investigate the pharmacokinetics (PK) of the compounds in different species after single intravenous and single oral administration of the test compounds.
(§2) After intravenous or oral administration, blood samples were collected from the animals, and the actual time of blood collection was recorded. After the blood samples were collected, the samples were immediately transferred to the labelled centrifuge tube containing K2-EDTA, and then centrifuged to obtain plasma. Plasma was transferred to pre-cooled centrifuge tubes, quick-frozen in dry ice and stored in an ultra-low temperature refrigerator at −70±10° C. until LC-MS/MS analysis was performed.
(§3) The plasma drug concentration data of the compounds were processed using pharmacokinetic software with a non-compartmental model. The peak concentration (Cmax) and time to peak (Tmax), as well as the quantifiable end time were obtained directly from the plasma concentration-time curve. The following pharmacokinetic parameters were calculated using the log-linear trapezoidal method: half-life (T1/2), apparent volume of distribution (Vdss), and clearance (Cl), area under the time-plasma concentration curve from point 0 to the end time point (AUC0-last), and initial concentration (C0).

[4] = Pharmacokinetic study, single intravenous and oral administration in mice; type: in vivo; conditions: mouse, plasma
Protocol: as §1, §2, §3

[5] = Day 14, oral once a day, 0-7 days 10 mg/kg, 8-21 days 40 mg/kg
[6] = intravenous injection 2 mg/kg, read-out: Exposure of AUC
[7] = intravenous injection 2 mg/kg, read-out: Vdss

For `C=CC(=O)Nc1cc(Nc2ncc(C(=O)OC(C)C)c(-c3cn(OC)c4ccccc34)n2)c(OC)cc1N(C)CCN(C)C.CS(=O)(=O)O` [Compound 1], the “Tumor volume (Day 0)” value ([1]; Day 0 (grouping), mean ± standard error, n = 6) was 133.2 ± 8.2 mm^3, the RTV [1, 5] was 1.9 and the T/C [1, 5] was 14.9%. The TGI [1, 5] was 92.1%, the “Tumor volume (Day 14)” value [1, 5] was 259.1 ± 35.2 mm^3 and the IC50 [2] was 25.6 nM. For the same compound, the clearance ([3]; intravenous injection 2 mg/kg) was 90.5 mL/min/kg, the half-life ([3]; intravenous injection 2 mg/kg) was 157 min and the AUC [3, 6] was 0.548 µM·h. It also gave a Vd [3, 7] of 18 L/kg, a bioavailability ([3]; oral 10 mg/kg) of 21.6% and an AUC(0-t) ([3]; oral 10 mg/kg) of 0.593 µM·h. For the same compound, the bioavailability ([3]; oral 20 mg/kg) was 57.1%, the AUC(0-t) ([3]; oral 20 mg/kg) was 3.13 µM·h and the bioavailability ([3]; oral 50 mg/kg) was 68.6%. It also gave an AUC(0-t) ([3]; oral 50 mg/kg) of 9.39 µM·h, a bioavailability ([3]; oral 200 mg/kg) of 34.5% and an AUC(0-t) ([3]; oral 200 mg/kg) of 18.9 µM·h. The clearance ([4]; intravenous injection 2 mg/kg) was 57.7 mL/min/kg, the half-life ([4]; intravenous injection 2 mg/kg) was 106 min and the AUC [4, 6] was 0.884 µM·h. The Vd [4, 7] was 6.95 L/kg, the Cmax ([4]; oral 10 mg/kg) was 300 nM and the Tmax ([4]; oral 10 mg/kg) was 2 h. The bioavailability ([4]; oral 10 mg/kg) was 22.1% and the AUC(0-t) ([4]; oral 10 mg/kg, read-out: Exposure of AUC0-last) was 1.42 µM·h.
